Marks after values point to notes of the source that are not given here.
Test system: male rats
Experiment: Plasma metabolite profiling (GC-MS, LC-MS, SPE-LC-MS) in male rats dosed once daily over 28 days (OECD 407)
Format: in vivo, rat
Parameters: key to erythro-Sphingoside (d18:1) / Tricosanoic acid (C23:0) / beta-Sitosterol / Tryptophan: ratio of treated group mean to untreated control group mean
Outline: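 Polar and lipid fractions profiled by GC-MS and LC-MS/MRM, steroids by online SPE-LC-MS; pool-normalized data compared to controls by Welch test as treatment ratios and p-values.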

[1] = male rats, plasma, high dose, day 7
[2] = male rats, plasma, high dose, day 14
[3] = male rats, plasma, high dose, day 28

With `Cn1cc[nH]c1=S` [Methimazole] the “3-O-Methylsphingosine (d18:1)” value (m7, high dose, Table 10a) was 3.59 *, the “5-O-Methylsphingosine (d18:1)” value (m7, high dose, Table 10a) was 3.41 * and the Cysteine (m7, high dose, Table 10a) was 0.74^. For the same compound, the “Lignoceric acid (C24:0)” value (m7, high dose, Table 10a) was 2.12 *, the “Nervonic acid (C24:cis[15]1)” value (m7, high dose, Table 10a) was 2.59 * and the “Oleic acid (C18:cis[9]1)” value (m7, high dose, Table 10a) was 0.95^. For the same compound, the “Stearic acid (C18:0)” value (m7, high dose, Table 10a) was 1.34 *, the alpha-Tocopherol (m7, high dose, Table 10a) was 1.76 * and the “erythro-Sphingoside (d18:1)” value (m7, high dose, Table 10a) was 2.91 *. The “threo-Sphingosine (d18:1)” value (m7, high dose, Table 10a) was 2.91 *, the “Oleic acid (C18:cis[9]1)” value (m7, high dose, Table 10b) was 0.95^ and the “Thyroxine (T4)” value (m7, high dose, Table 10b) was 0.11 *. The trans-4-Hydroxyproline (m7, high dose, Table 10b) was 0.85 *, the “3-O-Methylsphingosine (d18:1)” value (m14, high dose, Table 10a) was 3.98 * and the “5-O-Methylsphingosine (d18:1)” value (m14, high dose, Table 10a) was 4.75 *. The Cysteine (m14, high dose, Table 10a) was 1.25, the “Lignoceric acid (C24:0)” value (m14, high dose, Table 10a) was 2.82 * and the “Nervonic acid (C24:cis[15]1)” value (m14, high dose, Table 10a) was 3 *. For the same compound, the “Oleic acid (C18:cis[9]1)” value (m14, high dose, Table 10a) was 0.97, the “Stearic acid (C18:0)” value (m14, high dose, Table 10a) was 1.4 * and the alpha-Tocopherol (m14, high dose, Table 10a) was 2.66 *. The “erythro-Sphingoside (d18:1)” value (m14, high dose, Table 10a) was 3.71 *, the “threo-Sphingosine (d18:1)” value (m14, high dose, Table 10a) was 3.72 * and the “Oleic acid (C18:cis[9]1)” value (m14, high dose, Table 10b) was 0.97^. The “Thyroxine (T4)” value (m14, high dose, Table 10b) was 0.04 *, the trans-4-Hydroxyproline (m14, high dose, Table 10b) was 0.76 * and the “3-O-Methylsphingosine (d18:1)” value (m28, high dose, Table 10a) was 4.59 *. For the same compound, the “5-O-Methylsphingosine (d18:1)” value (m28, high dose, Table 10a) was 4.37 *, the Cysteine (m28, high dose, Table 10a) was 0.92^ and the “Lignoceric acid (C24:0)” value (m28, high dose, Table 10a) was 2.16 *. The “Nervonic acid (C24:cis[15]1)” value (m28, high dose, Table 10a) was 2.23 *, the “Oleic acid (C18:cis[9]1)” value (m28, high dose, Table 10a) was 0.87^ and the alpha-Tocopherol (m28, high dose, Table 10a) was 2.18 *. The “erythro-Sphingoside (d18:1)” value (m28, high dose, Table 10a) was 3.44 *, the “threo-Sphingosine (d18:1)” value (m28, high dose, Table 10a) was 4.28 * and the “Oleic acid (C18:cis[9]1)” value (m28, high dose, Table 10b) was 0.87 *. For the same compound, the “Phosphatidylcholine (C16:0, C16:0)” value (m28, high dose, Table 10b) was 0.92 *, the “Thyroxine (T4)” value (m28, high dose, Table 10b) was 0.02 * and the trans-4-Hydroxyproline (m28, high dose, Table 10b) was 0.92^. For the same compound, the “1,5-Anhydrosorbitol, ratio versus control” value [1] was 0.81 *, the “3-O-Methylsphingosine (d18:1), ratio versus control” value [1] was 3.59 * and the “5-O-Methylsphingosine (d18:1), ratio versus control” value [1] was 3.41 *. For the same compound, the “18-Hydroxy-11-deoxycorticosterone, ratio versus control” value [1] was 0.38 *, the “Behenic acid (C22:0), ratio versus control” value [1] was 2.19 * and the “Ceramide (d18:1, C24:0), ratio versus control” value [1] was 2.58 *. For the same compound, the “Ceramide (d18:1, C24:1), ratio versus control” value [1] was 1.88 *, the “Coenzyme Q9, ratio versus control” value [1] was 1.23 and the “Corticosterone, ratio versus control” value [1] was 0.38 *. For the same compound, the “Docosapentaenoic acid (C22:cis[7, 10, 13, 16, 19]5), ratio versus control” value (“Docosapentaenoic acid … ratio versus control” below) [1] was 1.16, the “Glucose, ratio versus control” value [1] was 1.02 and the “Glycerol, polar fraction, ratio versus control” value [1] was 0.74 *. The “Isoleucine, ratio versus control” value [1] was 0.98, the “Lignoceric acid (C24:0), ratio versus control” value [1] was 2.12 * and the “Linolenic acid (C18:cis[9, 12, 15]3), ratio versus control” value (from here on “Linolenic acid … ratio versus control”) [1] was 0.7 *. The “Nervonic acid (C24:cis[15]1), ratio versus control” value [1] was 2.59 *, the “Phytosphingosine, ratio versus control” value [1] was 2 * and the “Sphingomyelin (d18:1, C16:0), ratio versus control” value [1] was 2.24 *. The “Threonic acid, ratio versus control” value [1] was 0.72 *, the “Tricosanoic acid (C23:0), ratio versus control” value [1] was 1.93 * and the “alpha-Tocopherol, ratio versus control” value [1] was 2.26 *. For the same compound, the “erythro-Sphingosine (d18:1), ratio versus control” value [1] was 2.91 *, the “threo-Sphingosine (d18:1), ratio versus control” value [1] was 2.91 * and the “trans-4-Hydroxyproline, ratio versus control” value [1] was 0.85 *. For the same compound, the “1,5-Anhydrosorbitol, ratio versus control” value [2] was 0.98, the “3-O-Methylsphingosine (d18:1), ratio versus control” value [2] was 3.98 * and the “5-O-Methylsphingosine (d18:1), ratio versus control” value [2] was 4.75 *. For the same compound, the “18-Hydroxy-11-deoxycorticosterone, ratio versus control” value [2] was 0.82, the “Behenic acid (C22:0), ratio versus control” value [2] was 3.12 * and the “Ceramide (d18:1, C24:0), ratio versus control” value [2] was 2.83 *. The “Ceramide (d18:1, C24:1), ratio versus control” value [2] was 2.41 *, the “Choline plasmalogen (C18, C20:4), ratio versus control” value [2] was 1.45 * and the “Coenzyme Q9, ratio versus control” value [2] was 1.54 *. For the same compound, the “Corticosterone, ratio versus control” value [2] was 1.47 *, the “Docosapentaenoic acid … ratio versus control” value [2] was 1.17 and the “Glucose, ratio versus control” value [2] was 1.11. The “Glycerol, polar fraction, ratio versus control” value [2] was 0.64 *, the “Isoleucine, ratio versus control” value [2] was 1.18 * and the “Lignoceric acid (C24:0), ratio versus control” value [2] was 2.82 *. The “Linolenic acid … ratio versus control” value [2] was 0.8 *, the “Nervonic acid (C24:cis[15]1), ratio versus control” value [2] was 3 * and the “Phosphatidylcholine (C18:0, C22:6), ratio versus control” value [2] was 0.97. For the same compound, the “Phytosphingosine, ratio versus control” value [2] was 3.12 *, the “Sphingomyelin (d18:1, C16:0), ratio versus control” value [2] was 2.27 * and the “Sphingomyelin (d18:1, C24:0), ratio versus control” value [2] was 1.64 *. The “Threonic acid, ratio versus control” value [2] was 0.69 *, the “Tricosanoic acid (C23:0), ratio versus control” value [2] was 2.69 * and the “alpha-Tocopherol, ratio versus control” value [2] was 3.65 *. For the same compound, the “erythro-Sphingosine (d18:1), ratio versus control” value [2] was 3.71 *, the “threo-Sphingosine (d18:1), ratio versus control” value [2] was 3.72 * and the “trans-4-Hydroxyproline, ratio versus control” value [2] was 0.76 *. The “1,5-Anhydrosorbitol, ratio versus control” value [3] was 1.06, the “3-O-Methylsphingosine (d18:1), ratio versus control” value [3] was 4.59 * and the “5-O-Methylsphingosine (d18:1), ratio versus control” value [3] was 4.37 *. For the same compound, the “18-Hydroxy-11-deoxycorticosterone, ratio versus control” value [3] was 0.24 *, the “Behenic acid (C22:0), ratio versus control” value [3] was 3.13 * and the “Ceramide (d18:1, C24:0), ratio versus control” value [3] was 2.72 *. The “Ceramide (d18:1, C24:1), ratio versus control” value [3] was 1.89 *, the “Coenzyme Q9, ratio versus control” value [3] was 2.14 * and the “Corticosterone, ratio versus control” value [3] was 0.63. For the same compound, the “Glycerol, polar fraction, ratio versus control” value [3] was 0.71 *, the “Isoleucine, ratio versus control” value [3] was 1.38 * and the “Lignoceric acid (C24:0), ratio versus control” value [3] was 2.16 *. The “Linolenic acid … ratio versus control” value [3] was 0.7 *, the “Nervonic acid (C24:cis[15]1), ratio versus control” value [3] was 2.23 * and the “Phosphatidylcholine (C18:0, C22:6), ratio versus control” value [3] was 1.22 *. The “Phytosphingosine, ratio versus control” value [3] was 3.11 *, the “Sphingomyelin (d18:1, C16:0), ratio versus control” value [3] was 1.92 * and the “Sphingomyelin (d18:1, C24:0), ratio versus control” value [3] was 1.41 *. The “Threonic acid, ratio versus control” value [3] was 0.69 *, the “Tricosanoic acid (C23:0), ratio versus control” value [3] was 2.5 * and the “alpha-Tocopherol, ratio versus control” value [3] was 2.04 *. For the same compound, the “erythro-Sphingosine (d18:1), ratio versus control” value [3] was 3.44 *, the “threo-Sphingosine (d18:1), ratio versus control” value [3] was 4.28 * and the “trans-4-Hydroxyproline, ratio versus control” value [3] was 0.92 *. The “Docosapentaenoic acid … ratio versus control” value (rat, in vivo) was 1.24 *, the “Glucose, ratio versus control” value (rat, in vivo) was 1.06 * and the “Phosphatidylcholine (C18:0, C22:6), ratio versus control” value (rat, in vivo) was 1.17 *. The “Sphingomyelin (d18:1, C24:0), ratio versus control” value (rat, in vivo) was 1.35 * and the “Stearic acid (C18:0)” value (rat, in vivo) was 1.16 *.

— US20150010928A1, “MEANS AND METHODS FOR ASSESSING AN ENDOCRINE DISEASE OR DISORDER” (priority 2012, published 2015)
